From patent publication US12084444B2, “Spiro-lactam NMDA modulators and methods of using same” (Tenacia Biotechnology (Hong Kong) Co., Limited, priority 2016, dated 2024)

Legend:
Assay type in all cases: biochemical
[1] = biological target: T1, NMDAR2A expressing HEK cell membranes (Homo sapiens, UniProt Q12879); assay: NMDAR agonist assay, [3H]MK-801 binding, NMDAR2A; set-up: key to NMDAR2A B: log EC50: 0=−; ≥1×10^−9 M (e.g., −8)=+; <1×10^−9 M (e.g., −10)=++; conditions: 50 μM glutamate; for EC50: read-out: NMDAR2A B: log EC50 (converted)
T1 construct: expressed in transfected cells; host or cells: HEK cells (membrane extract)
Protocol: (§1) Assays were conducted as described by Moskal et al., “GLYX-13: a monoclonal antibody-derived peptide that acts as an N-methyl-D-aspartate receptor modulator,” Neuropharmacology, 49, 1077-87, 2005. These studies were designed to determine if the test compounds act to facilitate NMDAR activation in NMDAR2A, NMDAR2B, NMDAR2C or NMDAR2D expressing HEK cell membranes as measured by increases in [^3H]MK-801 binding.
(§2) In the assay, 300 μg of NMDAR expressing HEK cell membrane extract protein was preincubated for 15 minutes at 25° C. in the presence of saturating concentrations of glutamate (50 μM) and varying concentrations of test compound (1×10^−15 M-1×10^−7 M), or 1 mM glycine. Following the addition of 0.3 μCi of [^3H]MK-801 (22.5 Ci/mmol), reactions were again incubated for 15 minutes at 25° C. (nonequilibrium conditions). Bound and free [^3H]MK-801 were separated via rapid filtration using a Brandel apparatus.
(§3) In analyzing the data, the DPM (disintegrations per minute) of [^3H]MK-801 remaining on the filter were measured for each concentration of test compound or for 1 mM glycine. The DPM values for each concentration of a ligand (N=2) were averaged. The baseline value was determined from the best fit curve of the DPM values modeled using the GraphPad program and the log(agonist) vs. response(three parameters) algorithm was then subtracted from all points in the dataset. The % maximal [^3H]MK-801 binding was then calculated relative to that of 1 mM glycine: all baseline subtracted DPM values were divided by the average value for 1 mM glycine. The EC50 and % maximal activity were then obtained from the best fit curve of the % maximal [^3H]MK-801 binding data modelled using the GraphPad program and the log(agonist) vs. response(three parameters) algorithm.
(§4) The tables below summarize the results for the wild type NMDAR agonists NMDAR2A, NMDAR2B, NMDAR2C, and NMDAR2D, and whether the compound is not an agonist (−), is an agonist (+), or is a strong agonist (++), where column A is based on the % maximal [^3H]MK-801 binding relative to 1 mM glycine (−=0; <100%=+; and >100%=++); and column B is based on log EC50 values (0=−; ≥1×10^−9 M (e.g., −8)=+; and <1×10^−9 M (e.g., −10)=++).

[2] = biological target: T2, NMDAR2A expressing HEK cell membranes (Homo sapiens, UniProt Q05586+Q12879); assay: NMDAR agonist assay, [3H]MK-801 binding, NMDAR2A; set-up: key to NMDAR2A B: log EC50: 0=−; ≥1×10^−9 M (e.g., −8)=+; <1×10^−9 M (e.g., −10)=++; conditions: 50 μM glutamate; for EC50: read-out: NMDAR2A B: log EC50 (converted); for Emax: 0.25 h, read-out: NMDAR2A A: % maximal [3H]MK-801 binding relative to 1 mM glycine
T2 construct: expressed in transfected cells; host or cells: HEK cells (membrane extract)
T2 sequence (Q12879 23-1464, other chains not shown): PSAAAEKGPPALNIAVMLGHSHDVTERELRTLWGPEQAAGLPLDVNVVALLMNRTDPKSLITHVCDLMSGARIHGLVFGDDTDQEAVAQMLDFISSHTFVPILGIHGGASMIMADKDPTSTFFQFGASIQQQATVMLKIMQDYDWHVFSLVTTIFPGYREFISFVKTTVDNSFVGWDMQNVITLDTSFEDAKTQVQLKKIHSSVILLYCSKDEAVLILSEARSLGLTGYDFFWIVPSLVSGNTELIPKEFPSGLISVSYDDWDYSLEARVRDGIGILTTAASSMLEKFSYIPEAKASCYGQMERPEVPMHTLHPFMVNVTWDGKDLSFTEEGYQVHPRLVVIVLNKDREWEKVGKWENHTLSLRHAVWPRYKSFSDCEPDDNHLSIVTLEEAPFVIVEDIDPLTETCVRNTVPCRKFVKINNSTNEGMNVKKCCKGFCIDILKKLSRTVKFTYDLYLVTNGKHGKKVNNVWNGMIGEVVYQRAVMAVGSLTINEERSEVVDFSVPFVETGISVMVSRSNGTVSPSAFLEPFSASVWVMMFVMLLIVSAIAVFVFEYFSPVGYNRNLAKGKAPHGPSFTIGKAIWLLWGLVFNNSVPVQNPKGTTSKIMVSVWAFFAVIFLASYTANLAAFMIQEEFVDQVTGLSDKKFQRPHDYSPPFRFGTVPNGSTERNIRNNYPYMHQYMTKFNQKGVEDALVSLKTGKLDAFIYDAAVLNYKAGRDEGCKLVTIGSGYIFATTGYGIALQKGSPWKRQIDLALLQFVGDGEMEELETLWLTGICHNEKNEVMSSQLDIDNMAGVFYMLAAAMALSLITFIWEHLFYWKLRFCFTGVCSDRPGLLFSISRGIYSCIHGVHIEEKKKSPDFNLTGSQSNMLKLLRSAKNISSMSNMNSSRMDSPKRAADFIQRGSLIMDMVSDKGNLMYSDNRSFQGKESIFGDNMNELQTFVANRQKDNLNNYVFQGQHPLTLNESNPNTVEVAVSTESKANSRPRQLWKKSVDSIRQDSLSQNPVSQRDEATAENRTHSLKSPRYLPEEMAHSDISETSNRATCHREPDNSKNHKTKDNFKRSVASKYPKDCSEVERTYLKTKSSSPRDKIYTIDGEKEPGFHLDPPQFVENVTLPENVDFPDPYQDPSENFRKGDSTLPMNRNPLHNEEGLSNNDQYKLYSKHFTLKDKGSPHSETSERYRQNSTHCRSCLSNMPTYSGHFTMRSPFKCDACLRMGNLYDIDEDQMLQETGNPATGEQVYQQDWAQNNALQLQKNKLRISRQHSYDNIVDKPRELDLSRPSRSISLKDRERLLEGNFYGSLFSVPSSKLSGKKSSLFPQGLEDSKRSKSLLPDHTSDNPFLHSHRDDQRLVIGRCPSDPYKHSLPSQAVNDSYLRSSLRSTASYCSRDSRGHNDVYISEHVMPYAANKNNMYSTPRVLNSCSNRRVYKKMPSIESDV
Protocol: as §1, §2, §3, §4

[3] = biological target: T3, NMDAR2B expressing HEK cell membranes (Homo sapiens, UniProt Q13224); assay: NMDAR agonist assay, [3H]MK-801 binding, NMDAR2B; set-up: key to NMDAR2B B: log EC50: 0=−; ≥1×10^−9 M (e.g., −8)=+; <1×10^−9 M (e.g., −10)=++; conditions: 50 μM glutamate; for EC50: read-out: NMDAR2B B: log EC50 (converted)
T3 construct: expressed in transfected cells; host or cells: HEK cells (membrane extract)
T3 sequence (Q13224 27-1484, other chains not shown): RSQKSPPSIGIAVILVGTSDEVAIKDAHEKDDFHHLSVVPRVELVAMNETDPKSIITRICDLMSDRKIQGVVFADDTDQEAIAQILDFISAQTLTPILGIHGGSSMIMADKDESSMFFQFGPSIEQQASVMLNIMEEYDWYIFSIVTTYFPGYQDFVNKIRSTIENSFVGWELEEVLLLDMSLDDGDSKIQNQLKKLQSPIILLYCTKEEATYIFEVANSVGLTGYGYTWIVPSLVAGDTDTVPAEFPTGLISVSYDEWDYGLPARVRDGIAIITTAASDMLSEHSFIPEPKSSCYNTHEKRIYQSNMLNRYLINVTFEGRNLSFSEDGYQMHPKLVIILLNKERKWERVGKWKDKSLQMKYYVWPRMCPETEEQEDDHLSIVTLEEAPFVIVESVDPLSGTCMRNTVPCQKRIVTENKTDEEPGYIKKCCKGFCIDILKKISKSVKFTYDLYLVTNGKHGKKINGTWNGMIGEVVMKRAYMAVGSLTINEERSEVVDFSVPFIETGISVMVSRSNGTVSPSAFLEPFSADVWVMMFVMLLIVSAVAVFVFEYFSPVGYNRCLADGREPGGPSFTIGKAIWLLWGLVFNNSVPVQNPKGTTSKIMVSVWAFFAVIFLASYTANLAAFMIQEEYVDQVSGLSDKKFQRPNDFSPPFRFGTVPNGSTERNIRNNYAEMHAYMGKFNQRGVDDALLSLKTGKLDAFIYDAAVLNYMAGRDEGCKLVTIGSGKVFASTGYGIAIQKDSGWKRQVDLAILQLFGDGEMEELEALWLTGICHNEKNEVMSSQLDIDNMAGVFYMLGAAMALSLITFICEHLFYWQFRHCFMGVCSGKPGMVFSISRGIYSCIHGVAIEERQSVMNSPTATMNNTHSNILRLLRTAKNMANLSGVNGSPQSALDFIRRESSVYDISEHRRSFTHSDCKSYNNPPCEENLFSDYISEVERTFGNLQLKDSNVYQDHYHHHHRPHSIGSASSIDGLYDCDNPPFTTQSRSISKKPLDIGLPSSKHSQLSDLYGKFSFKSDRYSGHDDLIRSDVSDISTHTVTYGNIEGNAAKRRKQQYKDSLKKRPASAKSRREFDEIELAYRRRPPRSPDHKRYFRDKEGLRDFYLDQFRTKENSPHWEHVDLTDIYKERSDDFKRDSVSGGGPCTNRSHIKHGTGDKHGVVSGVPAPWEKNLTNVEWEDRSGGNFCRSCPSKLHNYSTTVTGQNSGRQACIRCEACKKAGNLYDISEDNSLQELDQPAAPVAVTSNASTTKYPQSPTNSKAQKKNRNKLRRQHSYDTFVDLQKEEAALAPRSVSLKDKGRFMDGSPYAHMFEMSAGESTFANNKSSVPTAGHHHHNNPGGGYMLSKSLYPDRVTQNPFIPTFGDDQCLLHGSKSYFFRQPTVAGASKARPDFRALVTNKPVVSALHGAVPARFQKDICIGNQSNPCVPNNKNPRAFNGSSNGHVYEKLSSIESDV
Protocol: as §1, §2, §3, §4

[4] = biological target: T4, NMDAR2B expressing HEK cell membranes (Homo sapiens, UniProt Q05586+Q13224); assay: NMDAR agonist assay, [3H]MK-801 binding, NMDAR2B; set-up: key to NMDAR2B B: log EC50: 0=−; ≥1×10^−9 M (e.g., −8)=+; <1×10^−9 M (e.g., −10)=++; conditions: 50 μM glutamate; for Emax: 0.25 h, read-out: NMDAR2B A: % maximal [3H]MK-801 binding relative to 1 mM glycine; for EC50: read-out: NMDAR2B B: log EC50 (converted)
T4 construct: expressed in transfected cells; host or cells: HEK cells (membrane extract)
T4 sequence (Q13224 27-1484, other chains not shown): as above
Protocol: as §1, §2, §3, §4

Row | Structure (SMILES) | NMDAR2A A: % maximal [3H]MK-801 binding relative to 1 mM glycine [1] | EC50 [2] | NMDAR2B A: % maximal [3H]MK-801 binding relative to 1 mM glycine [3] | EC50 [3] | EC50 [1] | NMDAR2A B: log EC50 [1] | Emax [2] | NMDAR2B B: log EC50 [3] | Emax [4] | EC50 [4]
1 | C[C@@H](O)[C@@H](C(=O)N(C)C)N1CC2(CCNC(=O)C2)C1=O (single isomer, unassigned) [CD] | + (<100%=+) | < 1 nM | + (<100%=+) | < 1 nM |  |  |  |  |  | 
2 | COc1ccc(CN2CC3(CCN(C)C(=O)C3)C2=O)cc1 (single isomer, unassigned) [CJ, 2-(4-methoxybenzyl)-7-methyl-2,7-diazaspiro[3.5]nonane-1,6-dione] | + (<100%=+) |  | ++ (>100%=++) | < 1 nM | < 1 nM |  |  |  |  | 
3 | COc1ccc(CN2CC3(CCNC(=S)C3)C2=O)cc1 (single isomer, unassigned) [CM, 2-(4-methoxybenzyl)-6-thioxo-2,7-diazaspiro[3.5]nonan-1-one] |  |  |  |  |  | − | 0% | − | 0% | 
4 | COc1ccc(CN2CC3(CCNC(=S)C3)C2=S)cc1 (single isomer, unassigned) [CP, 2-(4-methoxybenzyl)-2,7-diazaspiro[3.5]nonane-1,6-dithione] | + (<100%=+) |  | + (<100%=+) |  | < 1 nM |  |  |  |  | < 1 nM
5 | COc1ccc(CN2CC3(CCN(CC(C)C)C(=O)C3)C2=O)cc1 (single isomer, unassigned) [CS, 7-isobutyl-2-(4-methoxybenzyl)-2,7-diazaspiro[3.5]nonane-1,6-dione] |  | < 1 nM | ++ (>100%=++) |  |  |  | < 100% |  |  | < 1 nM
6 | COc1ccc(CN2CC3(CCN(CC(C)C)C(=O)C3)C2=O)cc1 (single isomer, unassigned) [CT, 7-isobutyl-2-(4-methoxybenzyl)-2,7-diazaspiro[3.5]nonane-1,6-dione] | + (<100%=+) |  | − (−=0) |  | < 1 nM |  |  | − |  | 
7 | O=C1CC2(CCN1)CN(Cc1ccccc1)C2=O (single isomer, unassigned) [CV, 2-benzyl-2,7-diazaspiro[3.5]nonane-1,6-dione] | + (<100%=+) | < 1 nM | + (<100%=+) | < 1 nM |  |  |  |  |  | 
8 | CN1CCC2(CC1=O)CN(Cc1ccccc1)C2=O (single isomer, unassigned) [CX, 2-benzyl-7-methyl-2,7-diazaspiro[3.5]nonane-1,6-dione] | + (<100%=+) |  | + (<100%=+) | < 1 nM | < 1 nM |  |  |  |  | 
9 | CCN1CCC2(CC1=O)CN(Cc1ccccc1)C2=O (single isomer, unassigned) [CY, 2-benzyl-7-ethyl-2,7-diazaspiro[3.5]nonane-1,6-dione] |  | < 1 nM |  |  |  |  | < 100% | − | 0% | 
10 | NC(=O)CN1CC2(CCNC(=O)C2)C1=O (single isomer, unassigned) [DD, 2-(1,6-dioxo-2,7-diazaspiro[3.5]nonan-2-yl)acetamide] | − (−=0) |  | + (<100%=+) | < 1 nM |  | − |  |  |  | 
11 | CC(C)CN1CC2(CCNC(=O)C2)C1=O (single isomer, unassigned) [DF, 2-isobutyl-2,7-diazaspiro[3.5]nonane-1,6-dione] |  |  |  | < 1 nM | < 1 nM |  |  |  |  | 
12 | CN1CC2(CCNC(=O)C2)C1=O (single isomer, unassigned) [DH, 2-methyl-2,7-diazaspiro[3.5]nonane-1,6-dione] | + (<100%=+) |  | ++ (>100%=++) |  | < 1 nM |  |  |  |  | < 1 nM
13 | CC1CC(=O)N(C)C12CN(CC(N)=O)C2=O (single isomer, unassigned) [DJ, 2-(5,8-dimethyl-1,6-dioxo-2,5-diazaspiro[3.4]octan-2-yl)acetamide] | − (−=0) |  | + (<100%=+) | < 1 nM |  | − |  |  |  | 
14 | CC1CC(=O)N(c2ccc(F)cc2)C12CN([C@H](C(N)=O)[C@@H](C)O)C2=O (single isomer, unassigned) [DK] |  | ≥ 1 nM |  |  |  |  | > 100% | − | 0% | 
15 | CC1CC(=O)N(c2ccc(F)cc2)C12CN([C@H](C(N)=O)[C@@H](C)O)C2=O (single isomer, unassigned) [DL] | + (<100%=+) | < 1 nM | − (−=0) |  |  |  |  | − |  | 
16 | CC1C(O)C(=O)N(C)C12CN(Cc1ccccc1)C2=O (single isomer, unassigned) [DM, 2-benzyl-7-hydroxy-5,8-dimethyl-2,5-diazaspiro[3.4]octane-1,6-dione] |  | ≥ 1 nM |  |  |  |  | < 100% | − | 0% | 
17 | CC1CC(=O)N(c2ccc(F)cc2)C12CN(Cc1ccccc1)C2=O (centres unmarked) [BY, 2-benzyl-5-(4-fluorophenyl)-8-methyl-2,5-diazaspiro[3.4]octane-1,6-dione] |  |  |  |  |  | − | 0% | − | 0% | 
18 | C[C@@H](O)[C@@H](C(=O)NCc1ccccc1)N1CC2(CCNC(=O)C2)C1=O (stereo partly drawn) [CA, (2S,3R)—N-benzyl-2-(1,6-dioxo-2,7-diazaspiro[3.5]nonan-2-yl)-3-hydroxybutanamide] |  |  |  |  |  | − | 0% | − | 0% | 
19 | CC1CC(=O)N(c2ccc(F)cc2)C12CN(CC(N)=O)C2=O (centres unmarked) [CE, 2-(5-(4-fluorophenyl)-8-methyl-1,6-dioxo-2,5-diazaspiro[3.4]octan-2-yl)acetamide] |  |  |  |  |  | − | 0% | − | 0% | 
20 | CC1C(N)C(=O)N(C)C12CN(Cc1ccccc1)C2=O (centres unmarked) [CH, 7-amino-2-benzyl-5,8-dimethyl-2,5-diazaspiro[3.4]octane-1,6-dione] |  |  |  |  |  | − | 0% | − | 0% | 
21 | CCN1CCC2(CC1=O)CN(Cc1ccc(OC)cc1)C2=O (centres unmarked) [CK, 7-ethyl-2-(4-methoxybenzyl)-2,7-diazaspiro[3.5]nonane-1,6-dione] |  |  |  |  |  | − | 0% | − | 0% | 
22 | CNC(=O)[C@H]([C@@H](C)O)N1CC2(CCNC(=O)C2)C1=O (stereo partly drawn) [DA, (2S,3R)-2-(1,6-dioxo-2,7-diazaspiro[3.5]nonan-2-yl)-3-hydroxy-N-methylbutanamide] |  |  |  |  |  | − | 0% | − | 0% | 
